From ChEMBL document CHEMBL1158866, “Bioactive labdane diterpenoids from Renealmia alpinia collected in the Suriname rainforest” (J Nat Prod, 1997) come the findings set out here.

By MIC is commonly meant the least concentration at which growth counts as inhibited. Low values mean inhibition by little substance, high ones a need for much substance. By IC50 is commonly meant the point on the concentration scale where inhibition reaches its midpoint.

Structures are written as SMILES. In brackets after ≈: the same amount, converted by molar mass. Activity calls are given as the source filed them. No cut-off for these calls is given here.

One assay relates to KB. Nature of the assay: Cytotoxicity against human KB cells. Particulars: read-out: ED50 (the source's name). It is filed as functional.
The subject of assay [1] is Meyerozyma guilliermondii. The assay can be described thus: Antimicrobial activity against sCandida guilliermondii. It is filed as functional.
The subject of the next assay is Candida tropicalis. Nature of the assay: Antimicrobial activity against Candida tropicalis. It is filed as functional.
In a further assay the test system is M109. Nature of the assay: Cytotoxicity against mouse M109 cells. The assay is classed as functional, cell-based.
Another assay has as its system Saccharomyces cerevisiae. Nature of the assay: Antimicrobial activity against yeast Sc7. The assay is classed as functional.

As to `C=C1CC[C@H]2C(C)(C)CCC[C@]2(C)[C@H]1C/C=C(/C=O)CC=O`, the EC50 in the assay with KB was 40 µg/mL (≈ 132 µM). The MIC (in assay [1]; in the assay on Candida tropicalis) was 6.25 µg/mL (≈ 20.7 µM) throughout. Besides, in the assay on M109, the result was inactive. The same molecule registered an IC12 in the assay with Saccharomyces cerevisiae of 46 µg/mL.
`C=C1CC[C@H]2C(C)(C)CCC[C@]2(C)[C@H]1[C@@H]1C=C(C=O)C[C@H](O)O1`: the IC50 with M109 stood at 2.6 µg/mL (≈ 8.16 µM). The same molecule yielded an IC12 in the assay with Saccharomyces cerevisiae of 3 µg/mL.
In the case of `C=C1CC[C@H]2C(C)(C)CCC[C@]2(C)[C@H]1C/C=C(/C=O)CC(=O)O`, the outcome in the assay with M109 was inactive. The IC12 in the assay on Saccharomyces cerevisiae came to 200 µg/mL.
